We go through 4 compounds from publication PMC4351541 (Scientific Reports, 2015).

Assay [1] concerns Na^+/K^+ ATPase (α1 and β1). The assay is described as follows: Pump-mediated steady-state current of Na+/K+ ATPase in Xenopus oocytes (two-electrode voltage clamp). The assay is classed as cell-based, Locusta migratoria manilensis. As to conditions: for effect on Na^+/K^+ ATPase steady-state current directly: oocytes expressing Na^+/K^+ ATPase without nAChRs, 1 μM nicotine and 1 μM DHβE. The protocol:
(§1) The L. migratoria manilensis subunit α1 (KF813096) and subunit β1 (KF813099) of Na^+/k^+ ATPase, and subunit α1 (KF873578) of nAhCRs were subcloned into the expression vector pGH19 at sites of BamHIand XbaI, BamHI and ApaI, and EcoRI and XbaI, respectively. Rattus norvegicus β2 subunit (L31622) was also subcloned into the expression vector pGH19 as described previously. The cRNAs of all subunits were generated as described previously. Xenopus oocyte preparation and cRNA injection were performed as described previously. Electrophysiological recordings were made using a two-electrode voltage clamp (Multiclamp 700B Amplifier; Axon Instruments, Foster, CA, USA) as previously described. The measurement of the current of Na^+/K^+ ATPase was performed as described.

Assay [2] addresses nAChRs (L. migratoria manilensis α1 and R. norvegicus β2) (Locusta migratoria manilensis, UniProt P12390+W6ECM5). The assay is described as follows: Two-electrode voltage-clamp agonist dose-response on nAChRs expressed in Xenopus oocytes, with or without Na+/K+ ATPase. The following applies: for effect of Na^+/K^+ ATPase co-expression on agonist sensitivity: co-expression of Na^+/K^+ ATPase vs nAChRs alone, increase not removed by ouabain. The assay is classed as cell-based.
From the text: To characterize the influence of Na^+/K^+ ATPase on nAChR function, nAChRs were expressed with or without Na^+/K^+ ATPase in Xenopus oocytes.
(B) Does-response curves for nicotine. (C) Does-response curves for imidacloprid. The curves from the oocytes expressing nAChRs (L. migratoria manilensis subunit α1 and R. norvegicus subunit β2) were indicated by open squares. The curves from the oocytes co-expressing nAChRs and Na^+/K^+ ATPase (subunit α1 and β1) were indicated by solid triangles (without ouabain) and open triangles (with ouabain).
as §1
Differences in responses (currents), Imax and EC50 values were analyzed by one-way ANOVA with at least three repeats (different batches of oocytes from different frogs). Multiple comparisons between the groups were performed using S-N-K method. The level of significance for results was set at p < 0.05.
In general terms: Two-electrode voltage clamp holds a large cell at a set potential and records current.

Each structure is given as a SMILES string.

One may read the EC50 as the concentration that produces a half-maximal response.

nAChRs (L. migratoria manilensis α1 and R. norvegicus β2), sequence (W6ECM5 21-570): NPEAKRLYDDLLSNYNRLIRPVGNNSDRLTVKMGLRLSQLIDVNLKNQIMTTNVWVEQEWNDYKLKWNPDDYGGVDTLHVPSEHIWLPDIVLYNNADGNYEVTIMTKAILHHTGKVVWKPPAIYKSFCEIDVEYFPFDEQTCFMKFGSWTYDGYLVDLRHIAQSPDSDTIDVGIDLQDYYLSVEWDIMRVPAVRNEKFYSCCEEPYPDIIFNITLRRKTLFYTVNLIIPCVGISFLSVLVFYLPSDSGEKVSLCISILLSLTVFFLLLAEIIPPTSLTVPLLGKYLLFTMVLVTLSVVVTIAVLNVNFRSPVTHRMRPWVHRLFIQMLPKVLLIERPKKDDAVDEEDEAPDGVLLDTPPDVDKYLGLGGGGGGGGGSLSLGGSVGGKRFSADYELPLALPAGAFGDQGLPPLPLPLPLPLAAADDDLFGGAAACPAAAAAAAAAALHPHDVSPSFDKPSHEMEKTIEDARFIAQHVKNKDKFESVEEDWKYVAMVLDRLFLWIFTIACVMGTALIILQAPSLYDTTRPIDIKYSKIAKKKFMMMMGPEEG
nAChRs (L. migratoria manilensis α1 and R. norvegicus β2), sequence (P12390 25-500): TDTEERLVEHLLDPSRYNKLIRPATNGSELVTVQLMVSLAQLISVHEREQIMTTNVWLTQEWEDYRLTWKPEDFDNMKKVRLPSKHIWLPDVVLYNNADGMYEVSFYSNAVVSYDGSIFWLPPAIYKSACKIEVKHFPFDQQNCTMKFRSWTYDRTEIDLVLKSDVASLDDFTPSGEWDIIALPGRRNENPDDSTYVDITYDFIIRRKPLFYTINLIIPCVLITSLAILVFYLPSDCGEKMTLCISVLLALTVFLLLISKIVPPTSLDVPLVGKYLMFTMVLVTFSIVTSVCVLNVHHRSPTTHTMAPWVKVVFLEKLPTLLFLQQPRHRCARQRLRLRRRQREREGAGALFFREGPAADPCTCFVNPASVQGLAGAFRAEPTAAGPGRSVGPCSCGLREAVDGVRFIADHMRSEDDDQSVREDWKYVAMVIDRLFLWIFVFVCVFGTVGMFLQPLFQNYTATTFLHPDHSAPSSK

Turning to `CN1CCC[C@H]1c1cccnc1` [nicotine], in assay [1] (oocytes co-expressing Na^+/K^+ ATPase and nAChRs, 1 μM nicotine, with 1 μM DHβE to suppress nAChR currents), the “steady state current of Na^+/K^+ ATPase” value is on record as “increased significantly”. The “effect on Na^+/K^+ ATPase steady-state current directly” value in assay [1] is “no effects”. For the same compound, in assay [2], the “effect of Na^+/K^+ ATPase co-expression on agonist sensitivity” value is given as “increase agonist sensitivities”.

For `O=[N+]([O-])NC1=NCCN1Cc1ccc(Cl)nc1` [imidacloprid], in assay [2], the “effect of Na^+/K^+ ATPase co-expression on agonist sensitivity” value is given as “increase agonist sensitivities”.

In turn, `CC(=O)OCC[N+](C)(C)C` [ACh, acetylcholine] registered a 50% effective concentration (EC50) in assay [2] (oocytes only expressing nAChRs) of 63.2 ± 5.14 µM.

For `CO[C@H]1CC=C2CCN3CCC4=C(CC(=O)OC4)[C@]23C1` [DHβE, dihydro-β-erythroidine], in assay [1], the “effect on Na^+/K^+ ATPase steady-state current directly” value was “no effects”.
